Data reported in US5811391A, “Cyclic CS-1 peptidomimetics, compositions and methods of using same” (Cytel Corporation, priority 1995, dated 1998).
Positions of bridges follow the written chain, without caps; N, C: chain ends. Non-standard residues stand in square brackets, D forms with d. Residues, ends and D or L forms follow the SMILES beside them. No end group written: not given here. *: point of attachment. Pen = CC(C)(S)[C@H](N)C(=O)O; PhAc = O=C(Cc1ccccc1)*

Target: VLA-4 (Homo sapiens, UniProt P05556+P13612)
Test: In vitro binding assay: 51Cr-labeled Jurkat cells to solid phase-bound CS-1 peptide (SEQ ID NO:5)
Assay type: cell-based
Design: inflammatory cells that contain the VLA-4 receptor [Jurkat cells; host or cells: Jurkat cells (human T lymphoblastic line)
Settings: not given
Description: Binding inhibition is measured here as a concentration of peptide that inhibits one-half the binding between a standard number of Jurkat cells and a standard amount of CS-1 peptide bound to the surface of a microtiter plate well. Those concentrations are conveniently expressed as IC50 values, smaller numbers indicating a lower concentration required to inhibit 50 percent binding and therefore greater potency. Further specifics of this assay are provided hereinafter.
Jurkat cells (ATCC TIB 152), a human T lymphoblastic line, labeled with ^51 chromium were used to assay in vitro binding inhibition provided by various peptides discussed herein.
The plates were prepared as follows: The 25-mer CS-1 peptide (SEQ ID NO:5) dissolved at 0.5-1 μg/ml in a buffer of 0.1M NaHCO3 at pH 9.5 that also contained 10 μg/ml of bovine serum albumin (BSA) or a conjugate of the CS-1 peptide linked to ovalbumin (CS-1-OVA) dissolved at 1-2.5 μg/ml in the same buffer was used as the substrate. Each well of the microtiter plates was coated with 50 μl of substrate or buffer alone for controls. The wells were permitted to dry out completely and were then rinsed twice with PBS at pH 7.4. Non-specific binding sites of each well were then blocked using 200 μl per well of RPMI/1 percent BSA for two hours at room temperature. Both solid phase-affixed substrates provided similar results.
Jurkat cells (3-5×10^6 cells) were placed into a 15 ml FALCON™ round-bottom tube with a cap. The tube was centrifuged, and the extra medium was then removed.
Two hundred microliters of a ^51 Cr labeling solution were added to the centrifuged cells and maintained in contact with the cells for 90-120 minutes in a warm room. This procedure typically provides about 50,000-100,000 cpm/well with about 80-100 percent cell viability. Longer contact times provide a greater amount of labeling but lower cell viability.
The labeled cells were washed with (i) complete medium, (ii) 1mM EDTA/PBS and then (iii) RPM1/1 percent BSA free of serum components. The cells were centrifuged after each washing. The cells were finally resuspended in serum-free RPMI/1 percent BSA at a concentration of 1×10^6 viable cells/ml, which provides a concentration that is diluted by one-half in the assay.
Cyclic inhibitor peptides were prepared as stock solutions at 20 mg/ml in DMSO in 1.5 ml cryogenic screwcap vials, and were stored at -70° C. Using FLOW™ round-bottom or V-bottom microtiter plates, the inhibitor peptides were prepared at twice the assay concentration in RPMI/1 percent BSA at 60 μl/well.
Four initial dilutions were typically used.
The ^51 Cr-labeled cells (1×10^6 cells at 60 μl/well) were then admixed with the diluted cyclic peptide solutions. The admixtures were maintained at room temperature (about 22° C.) for 30 minutes.
One hundred microliters of each inhibitor peptide/cell admixture were transferred to the substrate-coated wells. This was done in triplicate for each dilution. The resulting plates were incubated for 30 minutes at 37° C. and then washed gently three times with RPMI/1 percent BSA at 200 μl/well. Binding was observed microscopically, particularly after the second wash.
The bound cells were then lysed by the addition of a 0.5 percent solution of sodium dodecylsulfate in water at 100 μl/well. The resulting solutions were then processed for counting and calculation of IC50 values following usual procedures. Appropriate positive and negative controls were used with each plate so that the results of separate assays could be normalized and compared.
The potency data of Table 1 and Table 2 are so normalized. The absolute IC50 value for the peptide of SEQ ID NO:7 is 0.3 μM.

Sequence of VLA-4 (P13612 34-1032): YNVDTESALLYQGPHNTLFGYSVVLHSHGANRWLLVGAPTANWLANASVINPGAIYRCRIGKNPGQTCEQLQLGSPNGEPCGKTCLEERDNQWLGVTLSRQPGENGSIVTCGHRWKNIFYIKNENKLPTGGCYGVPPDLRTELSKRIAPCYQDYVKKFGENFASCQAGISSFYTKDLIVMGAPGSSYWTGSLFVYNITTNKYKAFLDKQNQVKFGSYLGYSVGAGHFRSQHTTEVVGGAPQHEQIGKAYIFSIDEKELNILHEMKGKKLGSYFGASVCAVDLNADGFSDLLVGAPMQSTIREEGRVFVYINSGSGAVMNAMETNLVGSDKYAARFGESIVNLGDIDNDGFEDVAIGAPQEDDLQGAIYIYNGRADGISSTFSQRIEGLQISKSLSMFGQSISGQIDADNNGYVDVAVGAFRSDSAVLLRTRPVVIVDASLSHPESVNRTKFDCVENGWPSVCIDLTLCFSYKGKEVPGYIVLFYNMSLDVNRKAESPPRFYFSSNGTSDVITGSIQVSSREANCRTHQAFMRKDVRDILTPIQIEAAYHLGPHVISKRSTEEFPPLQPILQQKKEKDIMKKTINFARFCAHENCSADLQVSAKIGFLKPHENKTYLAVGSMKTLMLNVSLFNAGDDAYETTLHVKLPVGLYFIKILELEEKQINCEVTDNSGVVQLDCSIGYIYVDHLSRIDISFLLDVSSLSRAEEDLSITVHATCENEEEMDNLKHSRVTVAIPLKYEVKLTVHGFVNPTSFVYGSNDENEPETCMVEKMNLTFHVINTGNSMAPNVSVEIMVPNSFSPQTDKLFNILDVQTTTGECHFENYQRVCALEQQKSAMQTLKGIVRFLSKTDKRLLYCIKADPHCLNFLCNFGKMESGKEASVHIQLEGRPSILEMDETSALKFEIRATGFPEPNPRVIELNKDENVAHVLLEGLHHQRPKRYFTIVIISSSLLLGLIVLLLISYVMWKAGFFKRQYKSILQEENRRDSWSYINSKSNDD
Sequence of VLA-4 (P05556 21-798): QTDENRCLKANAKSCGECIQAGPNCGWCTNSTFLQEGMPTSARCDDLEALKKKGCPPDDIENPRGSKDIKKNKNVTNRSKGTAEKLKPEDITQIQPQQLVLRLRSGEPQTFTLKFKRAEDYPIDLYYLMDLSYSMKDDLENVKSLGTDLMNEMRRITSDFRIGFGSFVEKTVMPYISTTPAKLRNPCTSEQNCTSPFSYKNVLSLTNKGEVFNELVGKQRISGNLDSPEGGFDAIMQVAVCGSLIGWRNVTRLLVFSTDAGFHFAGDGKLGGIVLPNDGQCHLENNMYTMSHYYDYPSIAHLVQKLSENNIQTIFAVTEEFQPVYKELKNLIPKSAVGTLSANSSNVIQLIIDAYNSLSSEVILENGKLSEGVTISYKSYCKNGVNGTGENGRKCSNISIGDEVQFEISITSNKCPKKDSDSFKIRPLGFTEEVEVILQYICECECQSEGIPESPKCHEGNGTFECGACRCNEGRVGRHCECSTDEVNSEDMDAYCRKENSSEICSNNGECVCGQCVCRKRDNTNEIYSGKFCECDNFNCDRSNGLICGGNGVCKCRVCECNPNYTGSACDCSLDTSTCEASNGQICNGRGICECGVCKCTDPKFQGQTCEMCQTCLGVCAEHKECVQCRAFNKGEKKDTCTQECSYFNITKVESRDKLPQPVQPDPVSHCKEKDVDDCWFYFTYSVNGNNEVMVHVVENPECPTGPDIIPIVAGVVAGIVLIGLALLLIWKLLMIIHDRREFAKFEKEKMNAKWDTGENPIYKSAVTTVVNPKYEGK

| Molecule | inhibition of binding to CS-1 (in words) |
| --- | --- |
| CC(C)C[C@@H]1NC(=O)[C@H](Cc2ccccc2)NC(=O)[C@@H](N)CSSC[C@@H](C(N)=O)NC(=O)[C@@H]2CCCN2C(=O)[C@H](Cc2ccccc2)NC(=O)[C@H](CC(=O)O)NC1=O [SEQ ID NO:10, CFLDFPC-N2] (H-CFLDFPC-NH2; disulfide 1-7) | excellent inhibitors |

Same assay, conditions: Jurkat cells, solid phase-bound CS-1; read-out: absolute value of IC50

| Molecule | IC50 [nM] |
| --- | --- |
| CC(C)C[C@@H]1NC(=O)[C@H](Cc2ccccc2)NC(=O)[C@@H](N)CSSC[C@@H](C(N)=O)NC(=O)[C@@H]2CCCN2C(=O)[C@H](Cc2ccccc2)NC(=O)[C@H](CC(=O)O)NC1=O [SEQ ID NO:10, CFLDFPC-N2] (H-CFLDFPC-NH2; disulfide 1-7) | ~600 |

Same assay, conditions: Table 1; normalized IC50 potency relative to standard peptide SEQ ID NO:6 (=1); Jurkat cells, CS-1

| Molecule | Relative Potency |
| --- | --- |
| CC1(C)SSC[C@@H](C(N)=O)NC(=O)[C@H](Cc2ccccc2)NC(=O)[C@H](CC(=O)O)NC(=O)[C@H]1NC(=O)Cc1ccccc1 [SEQ ID NO:14, .phi.AcJDFC-NH2] (PhAc-[Pen]DFC-NH2; disulfide 1-4) | 94 |
| NC(=O)[C@@H]1CCCN1C(=O)[C@@H]1CSSC[C@H](NC(=O)[C@@H](N)Cc2ccccc2)C(=O)N[C@@H](CC(=O)O)C(=O)N1 [SEQ ID NO:30, FCDCP-NH2] (H-FCDCP-NH2; disulfide 2-4) | < 1 |
| CC(C)C[C@@H]1NC(=O)[C@H](Cc2ccccc2)NC(=O)[C@H](CCC(=O)O)NC(=O)[C@@H]2CCCN2C(=O)CNC(=O)[C@@H](N)CSSC[C@@H](C(N)=O)NC(=O)[C@H](Cc2ccccc2)NC(=O)[C@H](CC(=O)O)NC1=O [SEQ ID NO:23, CGPEFLDFC-NH2] (H-CGPEFLDFC-NH2; disulfide 1-9) | 9 |
| CC(C)C[C@@H]1NC(=O)[C@H](Cc2ccccc2)NC(=O)[C@@H](N)CSSC[C@@H](C(N)=O)NC(=O)[C@H](C(C)C)NC(=O)[C@H]([C@@H](C)O)NC(=O)[C@H](CO)NC(=O)[C@@H]2CCCN2C(=O)[C@H](Cc2ccccc2)NC(=O)[C@H](CC(=O)O)NC1=O [SEQ ID NO:21, CFLDFPSTVC-NH2] (H-CFLDFPSTVC-NH2; disulfide 1-10) | 19 |
| CC(=O)N[C@@H](Cc1ccccc1)C(=O)N[C@H]1CSSC[C@@H](C(=O)N2CCC[C@H]2C(N)=O)NC(=O)[C@H](CC(=O)O)NC1=O [SEQ ID NO:29, AcFCDCP-NH2] (Ac-FCDCP-NH2; disulfide 2-4) | 1 |
| CC(C)C[C@H](N)C(=O)N[C@@H](CC(=O)O)C(=O)N[C@H](C(N)=O)C(C)C [LDV-NH2, reference compound] (H-Leu-Asp-Val-NH2) | 0 |
| CC(C)C[C@@H]1NC(=O)[C@H](Cc2ccccc2)NC(=O)[C@H](CCC(=O)O)NC(=O)[C@@H](N)CSSC[C@@H](C(N)=O)NC(=O)[C@H]([C@@H](C)O)NC(=O)[C@H](CO)NC(=O)[C@@H]2CCCN2C(=O)[C@H](Cc2ccccc2)NC(=O)[C@H](CC(=O)O)NC1=O [SEQ ID NO:22, CEFLDFPSTC-NH2] (H-CEFLDFPSTC-NH2; disulfide 1-10) | 9 |
| CC(C)C[C@@H]1NC(=O)[C@H](Cc2ccccc2)NC(=O)[C@@H](N)CSSC[C@@H](C(N)=O)NC(=O)[C@@H]2CCCN2C(=O)[C@H](Cc2ccccc2)NC(=O)[C@H](CC(=O)O)NC1=O [SEQ ID NO:10, CFLDFPC-N2] (H-CFLDFPC-NH2; disulfide 1-7) | 253 |
| CC(C)C[C@@H]1NC(=O)[C@@H](N)CSSC[C@@H](C(N)=O)NC(=O)[C@H](Cc2ccccc2)NC(=O)[C@H](CC(=O)O)NC1=O [SEQ ID NO:28, CLDFC -NH2] (H-CLDFC-NH2; disulfide 1-5) | 1 |
| CC(C)C[C@H](N)C(=O)N[C@@H](CC(=O)O)C(=O)N[C@@H](Cc1ccccc1)C(N)=O [LDF-NH2] (H-Leu-Asp-Phe-NH2) | 0 |
| CC(C)C[C@@H]1NC(=O)[C@H](CCC(=O)O)NC(=O)[C@@H]2CCCN2C(=O)[C@@H](N)CSSC[C@@H](C(N)=O)NC(=O)[C@H](CO)NC(=O)[C@@H]2CCCN2C(=O)[C@H](Cc2ccccc2)NC(=O)[C@H](CC(=O)O)NC1=O [SEQ ID NO:33, CPELDFPSC-NH2] (H-CPELDFPSC-NH2; disulfide 1-9) | 31 |
| SFDFS-NH2 [SEQ ID NO:31, SFDFS-NH2] | < 1 |
| CC(=O)N[C@@H](Cc1ccccc1)C(=O)N[C@H]1CSSC[C@@H](C(N)=O)NC(=O)[C@H](Cc2ccccc2)NC(=O)[C@H](CC(=O)O)NC1=O [SEQ ID NO:17, AcFCDFC-NH2] (Ac-FCDFC-NH2; disulfide 2-5) | 52 |
| CC1(C)SSC[C@H](C(N)=O)NC(=O)[C@H](Cc2ccccc2)NC(=O)[C@H](CC(=O)O)NC(=O)[C@H]1NC(=O)Cc1ccccc1 [.phi.AcJDFc-NH2] (PhAc-[Pen]DF[dC]-NH2; disulfide 1-4) | 4 |
| CC(C)C[C@@H]1NC(=O)[C@H](Cc2ccccc2)NC(=O)[C@H](CCC(=O)O)NC(=O)[C@@H](N)CSSC[C@@H](C(N)=O)NC(=O)[C@H](CO)NC(=O)[C@@H]2CCCN2C(=O)[C@H](Cc2ccccc2)NC(=O)[C@H](CC(=O)O)NC1=O [SEQ ID NO:24, CEFLDFPSC-NH2] (H-CEFLDFPSC-NH2; disulfide 1-9) | 6 |
| NC(=O)[C@@H]1CSSC[C@H](NC(=O)[C@@H](N)Cc2ccccc2)C(=O)N[C@@H](CC(=O)O)C(=O)N[C@@H](Cc2ccccc2)C(=O)N1 [SEQ ID NO:25, FCDFC-NH2] (H-FCDFC-NH2; disulfide 2-5) | 3 |

Same assay, conditions: Table 2; normalized IC50 potency relative to standard peptide SEQ ID NO:6; Jurkat cells, CS-1

| Molecule | Relative Potency |
| --- | --- |
| CC(C)C[C@@H]1NC(=O)[C@H](Cc2ccccc2)NC(=O)[C@H](CCC(=O)O)NC(=O)[C@@H](N)CSSC[C@@H](C(N)=O)NC(=O)[C@@H]2CCCN2C(=O)[C@H](Cc2ccccc2)NC(=O)[C@H](CC(=O)O)NC1=O [drawing 26] (H-CEFLDFPC-NH2; disulfide 1-8) | 18.8 |
| CC(C)C[C@@H]1NC(=O)[C@H](Cc2ccccc2)NC(=O)[C@H](CCC(=O)O)NC(=O)[C@@H]2CCCN2C(=O)CNC(=O)[C@@H](N)CSSC[C@@H](C(N)=O)NC(=O)[C@H](Cc2ccccc2)NC(=O)[C@H](CC(=O)O)NC1=O [drawing 30] (H-CGPEFLDFC-NH2; disulfide 1-9) | 9.39 |
| CC(=O)N[C@H]1CSSC[C@@H](C(=O)N2CCC[C@@H]2C(N)=O)NC(=O)[C@H](CC(=O)O)NC(=O)[C@H](CC(C)C)NC1=O (Ac-CLDC[dP]-NH2; disulfide 1-4) | 0 |
| CC(=O)N[C@H]1CSSC[C@@H](C(N)=O)NC(=O)[C@@H]2CCCN2C(=O)[C@H](Cc2ccccc2)NC(=O)[C@H](CC(=O)O)NC(=O)[C@H](CC(C)C)NC(=O)[C@H](Cc2ccccc2)NC1=O [drawing 10] (Ac-CFLDFPC-NH2; disulfide 1-7) | 135 |
| CC(C)C[C@@H]1NC(=O)[C@H](Cc2ccccc2)NC(=O)[C@H](CCC(=O)O)NC(=O)[C@@H]2CCCN2C(=O)[C@@H](N)CSSC[C@@H](C(N)=O)NC(=O)[C@H](CO)NC(=O)[C@@H]2CCCN2C(=O)[C@H](Cc2ccccc2)NC(=O)[C@H](CC(=O)O)NC1=O [drawing 35] (H-CPEFLDFPSC-NH2; disulfide 1-10) | 6.26 |
| CC(C)C[C@@H]1NC(=O)[C@H](Cc2ccccc2)NC(=O)[C@H](CCC(=O)O)NC(=O)[C@@H](N)CSSC[C@@H](C(N)=O)NC(=O)[C@H](CO)NC(=O)[C@@H]2CCCN2C(=O)[C@H](Cc2ccccc2)NC(=O)[C@H](CC(=O)O)NC1=O [drawing 34] (H-CEFLDFPSC-NH2; disulfide 1-9) | 6.26 |
| CC(C)C[C@@H]1NC(=O)[C@H](Cc2ccccc2)NC(=O)[C@@H](N)CSSC[C@@H](C(N)=O)NC(=O)[C@@H]2CCCN2C(=O)[C@H](Cc2ccccc2)NC(=O)[C@H](CC(=O)O)NC1=O [drawing 7] (H-CFLDFPC-NH2; disulfide 1-7) | 254 |
| NC(=O)[C@@H]1CSSC[C@H](NC(=O)[C@H](N)Cc2ccccc2)C(=O)N[C@@H](CC(=O)O)C(=O)N[C@@H](Cc2ccccc2)C(=O)N1 (H-[dF]CDFC-NH2; disulfide 2-5) | 3.13 |

Same assay, conditions: times/fold more potent than SEQ ID NO:6

| Molecule | Potency in inhibiting Jurkat cell binding to CS-1 relative to standard 10-mer of SEQ ID NO:6 |
| --- | --- |
| CC(C)C[C@H](N)C(=O)N[C@@H](CC(=O)O)C(=O)N[C@H](C(N)=O)C(C)C [LDV-NH2, reference compound] (H-Leu-Asp-Val-NH2) | zero |
| CC(C)C[C@@H]1NC(=O)[C@H](Cc2ccccc2)NC(=O)[C@@H](N)CSSC[C@@H](C(N)=O)NC(=O)[C@@H]2CCCN2C(=O)[C@H](Cc2ccccc2)NC(=O)[C@H](CC(=O)O)NC1=O [SEQ ID NO:10, CFLDFPC-N2] (H-CFLDFPC-NH2; disulfide 1-7) | about 253 |
